Laboratory results taken from article PMC8603350, “A Remote Secondary Binding Pocket Promotes Heteromultivalent Targeting of DC-SIGN” (Journal of the American Chemical Society, 2021).
Read-outs that look alike come from different tables or passages of the source.

Experiments:
[1] = system: DC-SIGN+ Raji cells; assay: Liposome binding assay, flow cytometry; assay type: cell-based
Description: (§1) If not stated otherwise, all media and supplements for cell culture experiments were purchased from Thermo Fisher Scientific. Raji, THP-1 and U937 cell lines (ATCC) were grown in complete growth medium containing RPMI1640 medium, 10% FCS, 100 U mL-1 Penicillin-Streptomycin and GlutaMax at 37°C and 5% CO2. Cells were monitored with a light microscope (IT40 5PH, VWR) and subcultured every 2 -3 days to maintain cell densities ranging from of 0.5 - 3 x 10^6 cells per mL.
(§2) CLR-expressing cell lines were generated as described before.4,27 Briefly, DC-SIGN, Langerin, murine Langerin and murine Dectin-1 cDNAs (Sinobiologicals) were cloned into a lentiviral BIC-PGK-Zeo-T2a-mAmetrine:EF1A construct by Gibson assembly (NEB) according to the manufacturer’s protocol. HEK293 cells were transfected with the lentiviral vector together with third-generation packaging vectors and viral particles were then used for transduction of Raji cells. In analogy, DC-SIGN and Langerin-expressing THP-1 and U937 cell lines were generated by lentiviral transduction.
(§3) Liposome binding assay – flow cytometry
(§4) Liposome binding to CLR-expressing cells was assayed as previously described.27 Briefly, 0.05 x 10^6 cells were plated in transparent conical-bottom 96 well microtiter plates (Nunc) in a volume of 100 µL medium. Plates were centrifuged at 500 x g for 3 minutes, supernatant was aspirated, and cells were resuspended in 100 µL medium, containing 16 µM liposomes. In control experiments, cells were incubated with medium containing 10 mM EDTA or 50 µg mL-1 mannan for 15 min at 4 °C, prior to liposome application. After 1 h incubation at 4 °C in the dark, cells were centrifuged at 500 x g for 3 min and the supernatant was discarded. Cells wer e resuspended in 200 µL ice-cold medium and analyzed by detecting the co-formulated Alexa 647 dye via flow cytometry with a 654 nm laser and a 670/14 nm filter (Attune Nxt, life technologies).
Flow cytometry data was processed using FlowJo (BD Bioscience). Mean fluorescence intensity (MFI) was further analyzed and plotted using GraphPad Prism (GraphPad […]
To monitor allosteric activation of DC-SIGN by glycomimetic 48, the described protocol was adjusted as follows. DC-SIGN+ Raji cells were plated in transparent conical-bottom 96 well microtiter plates (Nunc) in a volume of 100 µL medium. Plates were centrifuged at 500 x g for 3 minutes, supernatant was aspirated, and cell were resuspended in 25 µL medium supplemented with varying concentrations of monovalent carbohydrates or 0.5 mM 48. Homomultivalent liposomes carrying either natural carbohydrates or 48 were added at a final concentration of 16 µM. Liposome binding was subsequently quantified by measuring Alexa 647 fluorescence in flow cytometry experiments. Statistical significance by means of a student’s t-test was assessed based on averaged normalized MFIs from four biological replicates each conducted as technical duplicates. A p-value < 0.05 was set as significance cut-off.

[2] = biological target: T1, Langerin ECD (Homo sapiens, UniProt Q9UJ71); assay: 19F NMR reporter displacement assay (RDA), KI determination by titration; assay type: binding; settings: for Ki: competitive titration, 0.1 mM reporter ligand 49, 10% DMSO
T1 construct: the trimeric Langerin extracellular domain (ECD) was; made in house; host or cells: E. coli BL21* (DE3)
T1 sequence (Q9UJ71 65-328 limits assumed): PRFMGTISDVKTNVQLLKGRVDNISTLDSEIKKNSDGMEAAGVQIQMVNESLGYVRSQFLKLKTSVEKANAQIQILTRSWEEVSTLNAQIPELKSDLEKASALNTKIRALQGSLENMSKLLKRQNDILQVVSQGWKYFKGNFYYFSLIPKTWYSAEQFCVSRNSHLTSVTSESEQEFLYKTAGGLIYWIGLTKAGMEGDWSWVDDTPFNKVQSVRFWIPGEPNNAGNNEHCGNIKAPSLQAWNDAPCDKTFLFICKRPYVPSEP
Description: (§5) via SDS PAGE. The protein solution was aliquoted, snap frozen in liquid N2 and stored at -80°C until further usage.
(§6) NMR binding experiments – Langerin
(§7) General remarks. 19F R2-filtered NMR experiments were conducted on a PremiumCompact 600 MHz spectrometer (Agilent). Spectra were processed in MestreNova (Mestrelab Research) and data analysis was performed with OriginPro (OriginLab) . Experiments with the Langerin ECD were perf ormed at a receptor concentration of 50 μM in 25 mM Tris with 10% D 2O, 150 mM NaCl and 5 mM CaCl 2 […]
(§8) at pH 7.8 and 25°C. […]
CaCl2 at pH 7.0 and 25°C. TFA served as an internal reference at a concentration of 50 μM. Apparent transverse relaxation rates R 2,obs for the reporter ligand were determined using the CPMG pulse sequence as previously published. 6,30,31 […]
KI determination. KI values were determined as previously published for Langerin.6 Briefly, titration experiments were conducted at a concentration of 0.1 mM of reporter ligand 49 at five competitor concentrations [I]T (Table S5). […]

[3] = biological target: T2, DC-SIGN ECD (Homo sapiens, UniProt Q9NNX6); assay: 19F NMR reporter displacement assay transferred to DC-SIGN ECD; assay type: binding; settings: 0.1 mM reporter 49; for 48 estimated, receptor precipitation above 1 mM
T2 construct: DC-SIGN extracellular domain (ECD); made in house; host or cells: E. coli BL21(DE3), pET30b; gene from GenScript
T2 sequence (Q9NNX6 59-404 limits assumed): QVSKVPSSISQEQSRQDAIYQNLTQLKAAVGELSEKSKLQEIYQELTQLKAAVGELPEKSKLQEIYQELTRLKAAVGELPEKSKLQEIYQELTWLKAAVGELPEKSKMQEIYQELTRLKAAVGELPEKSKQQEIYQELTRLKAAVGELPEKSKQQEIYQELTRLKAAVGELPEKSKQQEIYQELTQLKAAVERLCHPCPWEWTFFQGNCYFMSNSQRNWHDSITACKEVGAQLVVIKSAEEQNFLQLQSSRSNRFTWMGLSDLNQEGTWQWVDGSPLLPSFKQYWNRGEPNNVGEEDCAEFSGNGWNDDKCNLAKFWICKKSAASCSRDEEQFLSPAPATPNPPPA
Description: KI values were determined as previously described for Langerin and the DC-SIGN CRD.6 Briefly, competitive binding experiments were conducted with 49 at a concentration of 0.1 mM and varying competitor concentrations [I]T. KI and [P]T values were derived from Equation 8 in a two-parameter fit.
𝜃 = 𝑐𝑜𝑠−1 ( ) ,𝑎 = 𝐾𝐷 + 𝐾𝐼 + [𝐿]𝑇 + [𝐼]𝑇 − [𝑃]𝑇
𝑏 = ([𝐼]𝑇 − [𝑃]𝑇)𝐾𝐷 + ([𝐿]𝑇 − [𝑃]𝑇)𝐾𝐷 + 𝐾𝐼𝐾𝐷, 𝑐 = −𝐾𝐼𝐾𝐷[𝑃]𝑇
For KD determination from 19F NMR CSPs, samples and measurements were set up as described for 19F R2-filtered NMR but at a single relaxation time T = 0 s. CSP 19F, T were calculated from the chemical shift of the 19F resonance of 48 in the presence of protein δT at increasing ligand concentrations and the chemical shift in absence of protein δf at a concentration of 1 mM via Equation 4.
The KD value was calculated from CSP19F, T values in a two -parameter fit using Equation 10, using a fixed protein concentration [P] T and a CSP19F of 0 ppm as a lower bound. CSP19F,b corresponds to the top asymptote and was kept variable. As in Equation 9, pb represents the fraction of bound protein.

[4] = biological target: T3, Langerin CRD (Homo sapiens, UniProt Q9UJ71); set-up: method as in earlier work; settings: previously published values; ref 6 (SI); cited from earlier work
T3 construct: Langerin carbohydrate recognition domains (CRDs) were expressed insolubly in; made in house; host or cells: E. coli BL21* (DE3)
T3 sequence (Q9UJ71 202-320 limits assumed): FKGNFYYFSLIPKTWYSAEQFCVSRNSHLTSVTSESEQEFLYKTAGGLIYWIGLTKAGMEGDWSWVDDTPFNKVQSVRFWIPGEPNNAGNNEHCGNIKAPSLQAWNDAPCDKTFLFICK

[5] = biological target: T1, Langerin ECD; assay: 19F R2-filtered NMR screening of the mannoside library (reporter displacement, single competitor concentration); assay type: binding
Description: as §5, §6, §7, §8
CaCl2 at pH 7.0 and 25°C. TFA served as an internal reference at a concentration of 50 μM. Apparent transverse relaxation rates R 2,obs for the reporter ligand were determined using the CPMG pulse sequence as previously published. 6,30,31 Screening of mannoside library . Estimated affinities KI,est were determined in competitive binding experiments at 0.1 mM of reporter ligand 49 at 0.1 mM using the Langerin ECD at a single competitor concentration as previously described.6 Here, receptor concentrations [P]T values were directly calculated from R2,max, the data point at 0.1 mM 49 in absence of competitor. Subsequently, KI values were estimated in a one parameter fit. The screening was conducted in presence of 0% to 10% DMSO at mannoside concentrations between 0.1 and 10 mM. […]

[6] = biological target: T3, Langerin CRD; assay: 15N HSQC NMR titration, KD determination; assay type: binding; settings: 10% DMSO
Description: ppm. The acquisition time tacq was set to 2.0 s and the DPFGSE pulse sequence was utilized for solvent suppression.33 Receptor resonances were suppressed using a T1,rho filter at a relaxation time τ of 35 ms.
Epitope mapping. The binding epitope for 43 was determined at a concentration of 500 µM. For each spectrum 512 scans were recorded. The relaxation delay d 1 was set to 6 s and spectra were recorded at 5 different saturation time s tsat varying from 0.25 to 6.00 s. Equation 1 served to derive the STD effect STD for each analyzed resonance from the corresponding on - and off-resonance spectra.34 I0 represents the integral of a resonance in the off-resonance spectrum and Isat represents the integral of a resonance in the on-resonance spectrum.
The apparent saturation rate k sat and the maximal STD effect STDmax were derived from Equation 2 in a two-parameter fit.35 Standard errors were derived directly from the fitting procedures. These parameters were used to calculate the initial slope of the STD build-up curves STD’0 via Equation 3. STD’0 values were normalized and mapped on the corresponding ligand structure. Only resonances for which at least part of a multiplet was isolated were considered for the epitope mapping.
STD = STDmax(1 − eksattsat)
General remarks. 15N HSQC NMR experiments were conducted on an Ascend 700 MHz spectrometer (Bruker).36 Spectra were processed in NMRPipe.37 Data analysis was performed using CCPN Analysis, MatLab (MathWorks) and OriginPro.38 […]
KD determination. KD values were determined in titration experiments at six ligand concentrations [L]T. Samples were prepared via serial dilution. Chemical shift perturbations CSPs for Langerin CRD resonances in the fast or fast-to-intermediate exchange regime observed upon titration with ligand were calculated as previously described via Equation 4.40
A standard deviation σ of 0.02 ppm was previously determined for the measurement of chemical shifts in 15N HSQC NMR experiments with the Langerin CRD. […]

[7] = system: Langerin+ Raji cells; assay: Liposome binding assay, flow cytometry; assay type: cell-based
Description: as §1, §2, §3, §4
(§9) Flow cytometry data was processed using FlowJo (BD Bioscience). Mean fluorescence

[8] = system: murine Dectin-1-expressing Raji cells; assay: Liposome binding assay, flow cytometry; assay type: cell-based
Description: as §1, §2, §3, §4, §9

[9] = system: murine Langerin-expressing Raji cells; assay: Liposome binding assay, flow cytometry; assay type: cell-based
Description: as §1, §2, §3, §4, §9

[10] = calculated utilizing the KI value determined for 45
[11] = calculated utilizing the KI value determined for 46

C[C@H](O)[C@@H](O)[C@@H](O)[C@H](O)C=O [Fuc, fucose, reference compound]
effect of soluble compound on binding of 48 liposomes ([1]; soluble Fuc, liposomes with 1.26 mol % 48, p > 0.05, n = 4): did not increase

OC[C@H]1OC(O)[C@@H](O)[C@@H](O)[C@@H]1O (stereo partly shown) [Man, mannose, reference compound]
Relative potency [2, 10]: 2.2 | Ki [3]: 2.4 ± 0.8 mM | Kd [4]: 5.8 ± 0.3 mM

O=C(O)c1ccc(-c2ccc(O[C@H]3O[C@H](CO)[C@@H](O)[C@H](O)[C@@H]3O)c(C(F)(F)F)c2)cc1 [compound 9]
potency estimated from few doses ([5]; estimated at a single competitor concentration, 0.1 mM reporter ligand 49, 0% to 10% DMSO, read-out: KI,est): 200 µM | affinity increase over reference molecule 1 ([5]; from KI,est): 45 fold | Relative potency [2, 10]: 44 | Relative potency [2, 11]: 57 | Ki [2]: 230 ± 30 µM | Kd [6]: 500 ± 200 µM

NCCS(=O)(=O)NC[C@H]1O[C@H](Oc2ccc(-c3ccc(C(=O)O)cc3)cc2C(F)(F)F)[C@@H](O)[C@@H](O)[C@@H]1O [compound 42]
binding of homomultivalent liposomes decorated with 2 mol% 42 ([1]; 2 mol%, formulations not long-term stable, unspecific binding): binding preference towards DC-SIGN | binding of homomultivalent liposomes decorated with 2 mol% 42 [7]: negligible | binding of homomultivalent liposomes decorated with 2 mol% 42 [8]: negligible | binding of homomultivalent liposomes decorated with 2 mol% 42 [9]: negligible

CC(=O)NCCS(=O)(=O)NC[C@H]1O[C@H](Oc2ccc(-c3ccc(C(=O)O)cc3)cc2C(F)(F)F)[C@@H](O)[C@@H](O)[C@@H]1O [compound 43]
Relative potency [2, 10]: 40 | Ki [2]: 250 ± 70 µM | affinity increase over Man reference 45 ([2]; from KI): 40 fold | Kd [6]: 460 ± 90 µM

CC(=O)NCCO[C@H]1O[C@H](CO)[C@@H](O)[C@H](O)[C@@H]1O [compound 45, reference compound]
Relative potency [2, 10]: 1.0

COC1OC(CO)C(O)C(O)C1O (stereo not shown) [compound 46, reference compound]
Relative potency [2, 11]: 1.0 | Ki [2]: 13000 ± 3000 µM | Kd [6]: 7000 ± 2000 µM
